Several values for one entry are separate records, joined by “and”; a condition that tells them apart may be missing. Equal entries are not always repeated. Where two headings read alike, the source gives them in different places.
What was measured:
[1] = target: T1, Trypsin (Bos taurus, UniProt P00760); assay: Anti-trypsin activity (inhibition of TAME hydrolysis); format: biochemical; details: read-out: ID50, Trypsin
T1 sequence (P00760 24-246): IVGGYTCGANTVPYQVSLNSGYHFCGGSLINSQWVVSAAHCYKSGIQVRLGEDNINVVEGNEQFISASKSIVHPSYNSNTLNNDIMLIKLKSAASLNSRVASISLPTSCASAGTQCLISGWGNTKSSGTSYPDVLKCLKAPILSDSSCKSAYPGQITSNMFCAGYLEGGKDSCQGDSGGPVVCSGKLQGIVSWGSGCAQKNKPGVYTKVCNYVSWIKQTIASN

[2] = test system: complement mediated hemolysis; assay: Inhibition of complement mediated hemolysis; format: cell-based
Excerpt: Therefore, when a known amount of complement admixed with a C1 esterase inhibitor is used, the hemolysis must be suppressed in proportion to the inhibitory activity.

[3] = test system: Kallikrein; assay: Anti-kallikrein activity (inhibition of TAME hydrolysis); format: biochemical; details: read-out: ID50, Kallikrein
[4] = target: T2, C1r (Homo sapiens, UniProt P00736); assay: Anti-C1r activity (inhibition of AAME hydrolysis); format: biochemical; details: at 1×10^-5 M; read-out: percent inhibition, C1r (figure in parentheses)
T2 sequence (P00736 18-463 limits assumed): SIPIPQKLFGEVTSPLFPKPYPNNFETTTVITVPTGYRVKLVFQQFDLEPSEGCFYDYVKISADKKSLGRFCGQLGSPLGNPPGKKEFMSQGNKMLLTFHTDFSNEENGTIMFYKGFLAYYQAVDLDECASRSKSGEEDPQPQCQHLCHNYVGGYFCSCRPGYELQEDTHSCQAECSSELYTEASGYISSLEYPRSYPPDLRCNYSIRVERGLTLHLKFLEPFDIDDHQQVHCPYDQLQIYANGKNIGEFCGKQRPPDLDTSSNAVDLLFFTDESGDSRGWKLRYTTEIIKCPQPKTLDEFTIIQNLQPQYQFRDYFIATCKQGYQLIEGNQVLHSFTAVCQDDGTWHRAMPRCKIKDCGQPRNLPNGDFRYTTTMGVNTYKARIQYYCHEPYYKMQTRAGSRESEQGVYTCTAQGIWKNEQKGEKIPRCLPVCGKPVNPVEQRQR
T2 sequence (P00736 464-705 limits assumed): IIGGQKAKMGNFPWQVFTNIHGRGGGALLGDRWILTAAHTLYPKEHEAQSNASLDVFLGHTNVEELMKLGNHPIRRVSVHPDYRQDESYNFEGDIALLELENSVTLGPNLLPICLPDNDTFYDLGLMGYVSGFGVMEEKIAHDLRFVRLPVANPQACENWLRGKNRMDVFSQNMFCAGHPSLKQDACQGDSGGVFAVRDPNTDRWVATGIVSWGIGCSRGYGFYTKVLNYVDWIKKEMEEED
Experimental: The anti-C1 esterase (C1r, C1s) activity was determined according to the method of Okamura et al. [K. Okamura, M. Muramatsu and B. Fujii, Biochem. Biophys. Acta, 295, 252-257 (1973)]. (2) The inhibition of complement mediated hemolysis was determined according to the method of Baker et al. [B. R. Baker and E. H. Erickson, J. Med. Chem., 12, 408-414 (1969)]. The figures in Table 2 have the following meanings: C1r: […]

[5] = target: Plasmin (Homo sapiens, UniProt P00747); assay: Anti-plasmin activity (inhibition of TAME hydrolysis); format: biochemical
Chain of Plasmin (P00747 97-580 limits assumed, species assumed): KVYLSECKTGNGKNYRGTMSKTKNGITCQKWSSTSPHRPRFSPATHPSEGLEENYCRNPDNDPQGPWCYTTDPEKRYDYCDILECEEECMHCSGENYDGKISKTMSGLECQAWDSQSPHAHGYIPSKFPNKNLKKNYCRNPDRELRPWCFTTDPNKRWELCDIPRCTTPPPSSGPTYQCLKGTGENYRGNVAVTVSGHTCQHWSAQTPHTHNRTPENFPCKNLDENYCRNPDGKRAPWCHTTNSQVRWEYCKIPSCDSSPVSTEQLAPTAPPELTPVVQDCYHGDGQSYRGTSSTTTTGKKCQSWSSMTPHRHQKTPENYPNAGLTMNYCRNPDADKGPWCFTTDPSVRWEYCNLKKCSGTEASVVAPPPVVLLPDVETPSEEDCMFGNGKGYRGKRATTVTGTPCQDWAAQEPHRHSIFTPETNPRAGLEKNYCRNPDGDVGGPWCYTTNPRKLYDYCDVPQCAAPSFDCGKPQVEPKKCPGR
Chain of Plasmin (P00747 581-810 limits assumed, species assumed): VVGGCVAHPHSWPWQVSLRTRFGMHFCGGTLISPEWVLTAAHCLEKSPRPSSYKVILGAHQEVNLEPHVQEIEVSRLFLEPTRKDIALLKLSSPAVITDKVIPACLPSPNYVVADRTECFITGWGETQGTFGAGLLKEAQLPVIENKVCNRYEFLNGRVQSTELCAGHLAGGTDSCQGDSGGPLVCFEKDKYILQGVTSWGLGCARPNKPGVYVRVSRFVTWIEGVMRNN

[6] = target: Thrombin (Homo sapiens, UniProt P00734); assay: biochemical; details: TAME hydrolysis; read-out: ID50, Thrombin
[7] = target: T3, C1s (Homo sapiens, UniProt P09871); assay: Anti-C1s activity (inhibition of ATEE hydrolysis); format: biochemical; details: read-out: ID50, C1s
T3 sequence (P09871 16-437 limits assumed): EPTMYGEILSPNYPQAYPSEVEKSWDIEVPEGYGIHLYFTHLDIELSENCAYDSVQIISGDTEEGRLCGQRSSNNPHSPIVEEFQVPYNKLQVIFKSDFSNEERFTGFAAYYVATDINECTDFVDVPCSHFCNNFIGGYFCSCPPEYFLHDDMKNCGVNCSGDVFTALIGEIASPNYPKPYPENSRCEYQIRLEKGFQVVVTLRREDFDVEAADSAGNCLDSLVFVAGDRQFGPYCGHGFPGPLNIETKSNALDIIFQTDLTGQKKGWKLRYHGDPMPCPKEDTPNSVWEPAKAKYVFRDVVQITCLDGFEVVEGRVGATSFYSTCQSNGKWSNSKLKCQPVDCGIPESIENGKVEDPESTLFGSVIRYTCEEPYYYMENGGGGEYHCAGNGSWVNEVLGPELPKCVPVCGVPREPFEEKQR
T3 sequence (P09871 438-688 limits assumed): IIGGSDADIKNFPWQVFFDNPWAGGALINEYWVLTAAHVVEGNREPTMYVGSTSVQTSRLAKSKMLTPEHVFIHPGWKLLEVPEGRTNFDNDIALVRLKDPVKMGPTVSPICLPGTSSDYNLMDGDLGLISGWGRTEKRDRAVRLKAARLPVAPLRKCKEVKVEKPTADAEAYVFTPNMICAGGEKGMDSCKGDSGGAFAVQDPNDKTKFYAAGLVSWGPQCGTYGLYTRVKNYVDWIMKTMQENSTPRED
Experimental: The anti-C1 esterase (C1r, C1s) activity was determined according to the method of Okamura et al. [K. Okamura, M. Muramatsu and B. Fujii, Biochem. Biophys. Acta, 295, 252-257 (1973)]. (2) The inhibition of complement mediated hemolysis was determined according to the method of Baker et al. [B. R. Baker and E. H. Erickson, J. Med. Chem., 12, 408-414 (1969)]. The figures in Table 2 have the following meanings:
C1s: Molar concentration of the test compound which inhibits 50% of the ability of C1s to hydrolyse ATEE (acetyltyrosin ethyl ester) (ID50).

[8] = test system: Forssman shock; assay: Forssman shock; format: in vivo; details: guinea pig, 100 mg/kg orally before i.v. hemolysin, individual animals; for time elapsed until death: 100 mg/kg
Excerpt: Quite different from other animals, guinea pig has on the surface of its organs a specific antigen called Forssman antigen which specifically reacts with the antibody of sheep erythrocyte. Forssman shock is based on the above principle and is a shock caused by the administration of antibody of sheep erythrocyte to a guinea pig. The Forssman shock was investigated in detail by many researches and it was definitely shown that this shock is a model case where the complement plays the principal part and that the shock is associated with a classical pathway in which the complement system is activated progressively starting from C1. Since the participation of complement in autoimmune diseases has been established, the Forssman shock can be said to be useful means for testing a drug for autoimmune diseases. A drug effective for the treatment of Forssman shock is useful as a drug of autoimmune diseases.
The experiment was performed according to the method of I. G. Offerness et al. [Biochem. Pharmacol., 27 (14), 1873-1878 (1978)]. Male Hartley guinea pigs of about 350 g in body weight were used. Each guinea pig of the control group was administered intravenously with hemolysin (minimum dose to cause the shock) (commercial hemolysin, 5,000 U as assayed by the method of Ogata) and the time elapsed until death was observed. Each guinea pig of the treated group was administered intravenously with hemolysin after the animal was administered orally with compounds (100 mg/kg) and the time elapsed until death was observed.

[9] = Toxicity (median lethal dose); details: in vivo, mouse

For CN=C(NC)Nc1ccc(C(=O)Oc2ccc3cc(C(=N)N)ccc3c2)cc1 [Compound No. 1, 6-amidino-2-naphthyl 4-(2,3-dimethyl)guanidino-benzoate], the IC50 [1] was 10000 nM, the “Inhibition of complement mediated hemolysis (%)” value (shortened to “Inhibition … (%)”) ([2]; 1 × 10^-5) was 97% and the “Inhibition … (%)” value ([2]; 1 × 10^-6) was 70%. For the same molecule, the “Inhibition … (%)” value ([2]; 1 × 10^-7) was 6%, the IC50 [3] was 700 nM and the inhibition at 10 µM [4] was 32%. It also gave an IC50 ([5]; TAME hydrolysis, read-out: ID50, Plasmin) of 800 nM, an IC50 [6] of 9000 nM and an IC50 [7] of 400 nM. The “Survival (instead of time elapsed until death)” value [8] was “Survival” and the “time elapsed until death” value [8] was 1291 s and 390 s and 504 s and 613 s and 404 s and 868 s.

With N=C(N)c1ccc2cc(OC(=O)c3ccc(NC4=NCCN4)cc3)ccc2c1 [Compound No. 2, 6-amidino-2-naphthyl 4-(2-imidazolinyl)amino-benzoate] the IC50 [1] was 1000 nM, the “Inhibition … (%)” value ([2]; 1 × 10^-5) was 100% and the “Inhibition … (%)” value ([2]; 1 × 10^-6) was 91%. For the same molecule, the “Inhibition … (%)” value ([2]; 1 × 10^-7) was 29%, the LD50 ([9]; iv, I.V.) was 19 mg/kg and the LD50 ([9]; po, P.O.) was > 3000 mg/kg. The inhibition at 10 µM [4] was 35%, the IC50 [5] was 2000 nM and the IC50 [7] was 700 nM. The “time elapsed until death” value [8] was 1108 s and 1255 s and 980 s and 855 s.

From patent publication US4777182A, “6-Amidino-2-naphthyl 4-guanidinobenzoate derivatives and pharmaceutical composition containing them” (Torii & Co., Ltd., priority 1984, dated 1988)
